Data as given in US8791143B2, “Anthranilic diamide derivatives having cyclic side-chains” (priority 2010, dated 2014).
Read-outs that look alike come from different tables or passages of the source.

Tests used:
[1] = log P by HPLC on reversed-phase columns (EEC Directive 79/831 Annex V.A8); format: physicochemical
[2] = system: caterpillars of the armyworm (Spodoptera frugiperda); experiment: Spodoptera frugiperda test (SPODFR spray treatment); format: in vivo; conditions: for pest or weed control at 100 g/ha: Spodoptera frugiperda, 168 h, read-out: activity in % (caterpillars killed)
[3] = system: larvae of the mustard beetle (Phaedon cochleariae); experiment: Phaedon test (PHAECO spray treatment); conditions: for pest or weed control at 100 g/ha: Phaedon cochleariae, 168 h, read-out: activity in % (beetle larvae killed)
[4] = reversed-phase C18 HPLC column, pH 2.7, HPLC reversed-phase C18, acidic range pH 2.7 (HCOOH), only or first value of the cell, read-out: log P
[5] = application rate 100 g/ha, after 7 days

Row | SMILES | chromatographic logP [1, 4] | log P ([1]; HPLC reversed-phase C18, acidic range pH 2.7 (HCOOH), only or first value of the cell) | pest or weed control at 100 g/ha [2, 5] [%] | pest or weed control at 100 g/ha [3] [%] | chromatographic logP ([1]; pH 2.7, log P) | pest or weed control at 100 g/ha [2] [%] | activity in % (caterpillars killed) [2, 5] [%] | activity in % (beetle larvae killed) [3, 5] [%]
1 | Cc1cc(Cl)cc(C(=O)NCc2cccc(OC(F)(F)F)c2)c1NC(=O)c1cc(Cn2nnc(C(F)F)n2)nn1-c1ncccc1Cl [Example 160] | 3.79 |  | 100 | 100 |  |  |  | 
2 | Cc1cc(Cl)cc(C(=O)NCc2ccc(OC(F)F)cc2)c1NC(=O)c1cc(Cn2nnc(C(F)F)n2)nn1-c1ncccc1Cl [Example 161] | 3.42 |  | 100 | 100 |  |  |  | 
3 | Cc1cc(C#N)cc(C(=O)NCc2cccc(OC(F)(F)F)c2)c1NC(=O)c1cc(Cn2nnc(C(F)F)n2)nn1-c1ncccc1Cl [Example 163] | 3.42 |  | 100 | 100 |  |  |  | 
4 | Cc1cc(C#N)cc(C(=O)NCc2ccc(OC(F)(F)F)cc2)c1NC(=O)c1cc(Cn2nnc(C(F)F)n2)nn1-c1ncccc1Cl [Example 164] | 3.42 |  | 100 | 100 |  |  |  | 
5 | Cc1cc(C#N)cc(C(=O)NCc2ccc(OC(F)F)cc2)c1NC(=O)c1cc(Cn2nnc(C(F)F)n2)nn1-c1ncccc1Cl [Example 165] | 3.04 |  | 100 | 100 |  |  |  | 
6 | Cc1cc(C#N)cc(C(=O)NCc2cccc(OC(F)(F)F)c2)c1NC(=O)c1cc(Cn2nnc(C(F)(F)F)n2)nn1-c1ncccc1Cl [Example 166] | 3.91 |  | 100 | 100 |  |  |  | 
7 | Cc1cc(C#N)cc(C(=O)NCc2ccc(OC(F)(F)F)cc2)c1NC(=O)c1cc(Cn2nnc(C(F)(F)F)n2)nn1-c1ncccc1Cl [Example 167] | 3.9 |  | 100 | 100 |  |  |  | 
8 | Cc1cc(C#N)cc(C(=O)NCc2ccc(OC(F)F)cc2)c1NC(=O)c1cc(Cn2nnc(C(F)(F)F)n2)nn1-c1ncccc1Cl [Example 168] | 3.49 |  | 100 | 100 |  |  |  | 
9 | Cc1cc(F)cc(C(=O)NCc2cccc(OC(F)(F)F)c2)c1NC(=O)c1cc(Cn2nnc(C(F)(F)F)n2)nn1-c1ncccc1Cl [Example 169] | 3.95 |  | 100 | 100 |  |  |  | 
10 | Cc1cc(F)cc(C(=O)NCc2ccc(OC(F)F)cc2)c1NC(=O)c1cc(Cn2nnc(C(F)(F)F)n2)nn1-c1ncccc1Cl [Example 170] | 3.55 |  | 100 | 100 |  |  |  | 
11 | Cc1c(F)ccc(C(=O)NCc2cccc(Cl)c2)c1NC(=O)c1cc(Cn2nnc(C(F)(F)F)n2)nn1-c1ncccc1Cl [Example 183] |  |  |  | 100 | 3.82 | 100 |  | 
12 | Cc1c(F)ccc(C(=O)NCc2ccc(Cl)cc2)c1NC(=O)c1cc(Cn2nnc(C(F)(F)F)n2)nn1-c1ncccc1Cl [Example 184] |  |  |  | 100 | 3.8 | 100 |  | 
13 | Cc1ccc(Cl)c(C(=O)NCc2ccccc2Cl)c1NC(=O)c1cc(Cn2nnc(C(F)(F)F)n2)nn1-c1ncccc1Cl [Example 196] |  |  |  | 100 | 3.64 | 100 |  | 
14 | Cc1ccc(Cl)c(C(=O)NCc2cccc(Cl)c2)c1NC(=O)c1cc(Cn2nnc(C(F)(F)F)n2)nn1-c1ncccc1Cl [Example 197] |  |  |  | 100 | 3.74 | 100 |  | 
15 | Cc1c(F)ccc(C(=O)NCc2ccccc2Cl)c1NC(=O)c1cc(Cn2nnc(C(F)(F)F)n2)nn1-c1ncccc1Cl [Example 202] |  |  |  | 100 | 3.79 | 100 |  | 
16 | O=C(NCc1ccccc1Cl)c1cc(Br)cc(Cl)c1NC(=O)c1cc(Cn2nnc(C(F)(F)F)n2)nn1-c1ncccc1Cl [Example 203] |  |  |  | 100 | 4.07 | 100 |  | 
17 | O=C(NCc1cccc(Cl)c1)c1cc(Br)cc(Cl)c1NC(=O)c1cc(Cn2nnc(C(F)(F)F)n2)nn1-c1ncccc1Cl [Example 204] |  |  |  | 100 | 4.09 | 100 |  | 
18 | O=C(NCc1ccc(Cl)cc1)c1cc(Br)cc(Cl)c1NC(=O)c1cc(Cn2nnc(C(F)(F)F)n2)nn1-c1ncccc1Cl [Example 205] |  |  |  | 100 | 4.08 | 100 |  | 

Continued, in another order:

Row | chromatographic logP [1, 4] | log P ([1]; HPLC reversed-phase C18, acidic range pH 2.7 (HCOOH), only or first value of the cell) | SMILES | pest or weed control at 100 g/ha [2, 5] [%] | pest or weed control at 100 g/ha [3] [%] | chromatographic logP ([1]; pH 2.7, log P) | pest or weed control at 100 g/ha [2] [%] | activity in % (caterpillars killed) [2, 5] [%] | activity in % (beetle larvae killed) [3, 5] [%]
19 | 3.47 |  | Cc1cc(Cl)cc(C(=O)NCc2ccccc2OC(F)F)c1NC(=O)c1cc(Cn2nnc(C(F)F)n2)nn1-c1ncccc1Cl [Example 175] | 100 | 100 |  |  |  | 
20 | 3.08 |  | Cc1cc(C#N)cc(C(=O)NCc2cccc(OC(F)F)c2)c1NC(=O)c1cc(Cn2nnc(C(F)F)n2)nn1-c1ncccc1Cl [Example 178] | 83 | 100 |  |  |  | 
21 | 3.54 |  | Cc1cc(C#N)cc(C(=O)NCc2cccc(OC(F)F)c2)c1NC(=O)c1cc(Cn2nnc(C(F)(F)F)n2)nn1-c1ncccc1Cl [Example 180] | 100 | 100 |  |  |  | 
22 | 3.64 |  | Cc1cc(C#N)cc(C(=O)NCc2ccc3c(c2)OCO3)c1NC(=O)c1cc(Cn2nnc(C(F)(F)F)n2)nn1-c1ccccc1Cl [Example 182] | 83 | 100 |  |  |  | 
23 | 4.04 |  | Cc1c(F)ccc(C(=O)NCc2ccccc2OC(F)(F)F)c1NC(=O)c1cc(Cn2nnc(C(F)(F)F)n2)nn1-c1ncccc1Cl [Example 185] | 100 | 100 |  |  |  | 
24 | 4.07 |  | Cc1c(F)ccc(C(=O)NCc2cccc(OC(F)(F)F)c2)c1NC(=O)c1cc(Cn2nnc(C(F)(F)F)n2)nn1-c1ncccc1Cl [Example 186] | 100 | 100 |  |  |  | 
25 | 4.05 |  | Cc1c(F)ccc(C(=O)NCc2ccc(OC(F)(F)F)cc2)c1NC(=O)c1cc(Cn2nnc(C(F)(F)F)n2)nn1-c1ncccc1Cl [Example 187] | 100 | 100 |  |  |  | 
26 | 4.13 |  | Cc1cc(C#N)cc(C(=O)NCc2ccccc2OC(F)(F)F)c1NC(=O)c1cc(Cn2nnc(C(F)(F)F)n2)nn1-c1c(Cl)cccc1Cl [Example 188] | 100 | 100 |  |  |  | 
27 | 3.75 |  | Cc1cc(C#N)cc(C(=O)NCc2ccccc2OC(F)F)c1NC(=O)c1cc(Cn2nnc(C(F)(F)F)n2)nn1-c1c(Cl)cccc1Cl [Example 189] | 100 | 100 |  |  |  | 
28 | 3.88 |  | Cc1cc(C#N)cc(C(=O)NCc2ccccc2OC(F)F)c1NC(=O)c1cc(Cn2nnc(C(F)(F)F)n2)nn1-c1ccccc1Cl [Example 190] | 100 | 100 |  |  |  | 
29 | 3.81 |  | Cc1cc(C#N)cc(C(=O)NCc2ccc(OC(F)F)cc2)c1NC(=O)c1cc(Cn2nnc(C(F)(F)F)n2)nn1-c1ccccc1Cl [Example 191] | 100 | 100 |  |  |  | 
30 | 3.98 |  | Cc1cc(C#N)cc(C(=O)NCc2ccc(OC(F)(F)F)cc2)c1NC(=O)c1cc(Cn2nnc(C(F)(F)F)n2)nn1-c1ccccc1Cl [Example 192] | 100 | 100 |  |  |  | 
31 | 4.32 |  | O=C(NCc1cccc(OC(F)(F)F)c1)c1cc(Br)cc(Cl)c1NC(=O)c1cc(Cn2nnc(C(F)(F)F)n2)nn1-c1ncccc1Cl [Example 194] | 100 | 100 |  |  |  | 
32 | 4.31 |  | O=C(NCc1ccc(OC(F)(F)F)cc1)c1cc(Br)cc(Cl)c1NC(=O)c1cc(Cn2nnc(C(F)(F)F)n2)nn1-c1ncccc1Cl [Example 195] | 100 | 100 |  |  |  | 
33 | 3.89 |  | O=C(NCc1cccc(Cl)c1)c1cc(Cl)cc(F)c1NC(=O)c1cc(Cn2nnc(C(F)(F)F)n2)nn1-c1ncccc1Cl [Example 207] | 100 | 100 |  |  |  | 
34 |  | 3.95 | O=C(NCc1ccc(Cl)cc1)c1cc(Cl)cc(F)c1NC(=O)c1cc(Cn2nnc(C(F)(F)F)n2)nn1-c1ncccc1Cl [Example 208] |  |  |  |  | 100 | 100
35 | 4.12 |  | O=C(NCc1ccccc1OC(F)(F)F)c1cc(Cl)cc(F)c1NC(=O)c1cc(Cn2nnc(C(F)(F)F)n2)nn1-c1ncccc1Cl [Example 209] | 100 | 100 |  |  |  | 
36 | 4.22 |  | O=C(NCc1cccc(OC(F)(F)F)c1)c1cc(Cl)cc(F)c1NC(=O)c1cc(Cn2nnc(C(F)(F)F)n2)nn1-c1ncccc1Cl [Example 210] | 100 | 100 |  |  |  | 
37 | 4.21 |  | O=C(NCc1ccc(OC(F)(F)F)cc1)c1cc(Cl)cc(F)c1NC(=O)c1cc(Cn2nnc(C(F)(F)F)n2)nn1-c1ncccc1Cl [Example 211] | 100 | 100 |  |  |  | 
38 | 3.67 |  | Cc1cc(C#N)cc(C(=O)NCc2cccc(OC(F)F)c2)c1NC(=O)c1cc(Cn2nnc(C(F)(F)F)n2)nn1-c1ccccc1Cl [Example 212] | 100 | 100 |  |  |  | 
39 | 4.18 |  | Cc1cc(C#N)cc(C(=O)NCc2cccc(OC(F)(F)F)c2)c1NC(=O)c1cc(Cn2nnc(C(F)(F)F)n2)nn1-c1ccccc1Cl [Example 213] | 100 | 100 |  |  |  | 
